In PubChem BioAssay (NCI):
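In this assay, cells in 96-well plates receive the compound at five concentrations for 48 hours. Endpoints are linearly interpolated between the surrounding concentrations. TGI marks complete inhibition of growth.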

What follows are molecules tested on HL-60(TB) leukemia (assay: NCI tumour cell line growth inhibition, 48 h).
COc1ccc(-c2nc(SCC(=O)NNC(=S)Nc3ccccc3)[nH]c2-c2ccc(OC)cc2)cc1 was tested, and the TGI was 29.9 µM. For CCCCCC#CCOC(=O)C(=[N+]=[N-])P(=O)(c1ccccc1)c1ccccc1, the TGI was > 10 µM. With CCOc1cc(/C=C2/C(C)=NN(c3cccc(Cl)c3)/C2=N/c2nc3ccccc3s2)ccc1O the TGI was 12.4 µM. COc1cc(OC)cc(C(=O)CC(=O)c2cc(OC)cc(OC)c2)c1 was tested, and the TGI was > 100 µM. With O=C1OC(C2Cc3ccc4ccccc4c3C2=O)c2ccccc21 (stereo unspecified) the TGI was > 100 µM. O=C(O)[C@H]1CCCN1CP(=O)(O)CN1CCC[C@@H]1C(=O)O was tested, and the TGI was > 100 µM. COc1ccc(C2OC(c3ccncc3)=NN2C)cc1F (stereo unspecified) was tested, and the TGI was > 100 µM. In the case of COc1cc2c(cc1OC)C(C(c1ccccc1)c1ccccc1)N(C)CC2 (stereo unspecified), the TGI is reported as > 100 µM. C[N+](C)([O-])CCOc1cc2c(c3ccccc13)-c1ccccc1C2=O was tested, and the TGI was 35.5 µM. With CCOC(=O)C1S/C(=N\C(=N)N[N+](=O)[O-])N=C1C (stereo unspecified) the TGI was > 100 µM. COC(=O)C(Cc1ccc2c(c1)CCC2)Cc1ccc2c(c1)CCC2 was tested, and the TGI was 88.8 µM. C/C(C[n+]1ccccc1)=N\N=C(N)N was tested, and the TGI was > 100 µM. In the case of Cc1nc(C)c(C(=O)NNC(=O)C[N+](C)(C)C)cc1C(=O)NNC(=O)C[N+](C)(C)C, the TGI is reported as > 100 µM. S=C1NC2=C(CSC/C2=C\c2cccc(Br)c2)C(c2cccc(Br)c2)N1 (stereo unspecified) was tested, and the TGI was > 100 µM. For CCCCCCCCCCCCCCCCNc1cccc2ccccc12, the TGI was > 100 µM. O=C1OCC/C1=N/O was tested, and the TGI was > 100 µM. CC(O)CNC(=O)C(C)Oc1ccc(OCC2CCCCC2)cc1 (stereo unspecified) was tested, and the TGI was > 100 µM. CC(=NNC(=S)Nc1ccccc1)c1cccc(C(C)=NNC(=S)Nc2ccccc2)n1 was tested, and the TGI was > 20.6 µM. Cc1c(O)nc(-n2[nH]c3c(c2=O)CCCC3)[nH]c1=O was tested, and the TGI was > 100 µM. With CCCNc1ncnc2c1ncn2C the TGI was 96.3 µM. In the case of CCOS(C)(=O)=O, the TGI is reported as > 100 µM. Molecule C=C1CC(C#N)(C#N)[C@H]2C3CCCC3C[C@@H]12 (stereo partly specified) (tested in a mixture with another compound) has a TGI of 54.2 µM.

Each molecule was assayed on HOP-62 NSCLC (assay: NCI tumour cell line growth inhibition, 48 h).
CC1=CCC([C@@](C)(O)CCCC(C)(C)N=C=S)CC1 (stereo partly specified) gave a TGI of 40 µM. With N[C@@H](Cc1ccccc1)C(=O)N1CCC[C@@H]1P(=O)(Oc1ccccc1)Oc1ccccc1 the TGI was > 100 µM. Cc1ccc(/C=N\NC2c3cc(Cl)ccc3Nc3nc(=O)[nH]c(C)c32)cc1 (stereo unspecified) was tested, and the TGI was > 100 µM. COc1ccc(-c2nc(SCC(=O)NNC(=S)Nc3ccccc3)[nH]c2-c2ccc(OC)cc2)cc1 showed a TGI of 46.1 µM. CCCCCC#CCOC(=O)C(=[N+]=[N-])P(=O)(c1ccccc1)c1ccccc1 was tested, and the TGI was > 10 µM. For CCOc1cc(/C=C2/C(C)=NN(c3cccc(Cl)c3)/C2=N/c2nc3ccccc3s2)ccc1O, the TGI was > 100 µM. COc1cc(OC)cc(C(=O)CC(=O)c2cc(OC)cc(OC)c2)c1 was tested, and the TGI was > 100 µM. With O=C(O)[C@H]1CCCN1CP(=O)(O)CN1CCC[C@@H]1C(=O)O the TGI was > 100 µM. O=C1c2ccccc2C(=O)N1n1c(Cc2ccc([N+](=O)[O-])cc2)n[nH]c1=O was tested, and the TGI was > 100 µM. With COc1ccc(C2OC(c3ccncc3)=NN2C)cc1F (stereo unspecified) the TGI was > 100 µM. For COc1cc2c(cc1OC)C(C(c1ccccc1)c1ccccc1)N(C)CC2 (stereo unspecified), the TGI was > 100 µM. With C[N+](C)([O-])CCOc1cc2c(c3ccccc13)-c1ccccc1C2=O the TGI was 69.6 µM. In the case of CCOC(=O)C1S/C(=N\C(=N)N[N+](=O)[O-])N=C1C (stereo unspecified), the TGI is reported as > 100 µM. With COC(=O)C(Cc1ccc2c(c1)CCC2)Cc1ccc2c(c1)CCC2 the TGI was > 100 µM. With C/C(C[n+]1ccccc1)=N\N=C(N)N the TGI was > 100 µM. In the case of O=[N+]([O-])C(=C(Nc1cccc2cccnc12)Nc1cccc2cccnc12)C(Cl)=C(Cl)Cl, the TGI is reported as > 100 µM. For Cc1nc(C)c(C(=O)NNC(=O)C[N+](C)(C)C)cc1C(=O)NNC(=O)C[N+](C)(C)C, the TGI was > 100 µM. In the case of S=C1NC2=C(CSC/C2=C\c2cccc(Br)c2)C(c2cccc(Br)c2)N1 (stereo unspecified), the TGI is reported as > 100 µM. With CCCCCCCCCCCCCCCCNc1cccc2ccccc12 the TGI was > 100 µM. C=C(C(=O)OCC)C(=O)OCC was tested, and the TGI was > 100 µM. For CSC1=N/C(=C\c2ccc(C)cc2)C(=O)N1CN1CCCCC1, the TGI was > 100 µM. With CC(=NNC(=S)Nc1ccccc1)c1cccc(C(C)=NNC(=S)Nc2ccccc2)n1 the TGI was > 100 µM. Cc1c(/C=N\NC(=S)NCCNC(=S)N/N=C\c2c(C)n(C)n(-c3ccccc3)c2=O)c(=O)n(-c2ccccc2)n1C was tested, and the TGI was > 100 µM. For CC(C)c1cc2c(c(O)c1O)[C@@]1(C(=O)O)CCCC(C)(C)[C@@H]1CC2, the TGI was 65.2 µM. With O=P(O)(O)C(N=C(Nc1ccccc1)Nc1ccccc1)P(=O)(O)O the TGI was > 100 µM. With CCCNc1ncnc2c1ncn2C the TGI was > 100 µM. With CC(C)(C)[Si](C)(C)OCC1OC(n2ccc(=O)[nH]c2=O)C(O[Si](C)(C)C(C)(C)C)/C1=C/C#N (stereo unspecified) the TGI was > 100 µM. With Nc1ccc(N=Nc2c(S(=O)(=O)O)cc3ccccc3c2S(=O)(=O)O)cc1 the TGI was > 100 µM.

What follows are molecules tested on MOLT-4 leukemia (assay: NCI tumour cell line growth inhibition, 48 h).
With CC1=CCC([C@@](C)(O)CCCC(C)(C)N=C=S)CC1 (stereo partly specified) the TGI was 50.5 µM. N[C@@H](Cc1ccccc1)C(=O)N1CCC[C@@H]1P(=O)(Oc1ccccc1)Oc1ccccc1 was tested, and the TGI was > 100 µM. In the case of Cc1ccc(/C=N\NC2c3cc(Cl)ccc3Nc3nc(=O)[nH]c(C)c32)cc1 (stereo unspecified), the TGI is reported as > 100 µM. For O=c1[nH][nH]c(=O)n1CCCCCCn1c(=O)[nH][nH]c1=O, the TGI was > 100 µM. For COc1ccc(-c2nc(SCC(=O)NNC(=S)Nc3ccccc3)[nH]c2-c2ccc(OC)cc2)cc1, the TGI was 25.3 µM. With CCCCCC#CCOC(=O)C(=[N+]=[N-])P(=O)(c1ccccc1)c1ccccc1 the TGI was > 10 µM. With CCOc1cc(/C=C2/C(C)=NN(c3cccc(Cl)c3)/C2=N/c2nc3ccccc3s2)ccc1O the TGI was > 100 µM. COc1cc(OC)cc(C(=O)CC(=O)c2cc(OC)cc(OC)c2)c1 was tested, and the TGI was > 100 µM. O=C1OC(C2Cc3ccc4ccccc4c3C2=O)c2ccccc21 (stereo unspecified) was tested, and the TGI was > 100 µM. For O=C(O)[C@H]1CCCN1CP(=O)(O)CN1CCC[C@@H]1C(=O)O, the TGI was > 100 µM. O=C1c2ccccc2C(=O)N1n1c(Cc2ccc([N+](=O)[O-])cc2)n[nH]c1=O was tested, and the TGI was > 100 µM. With COc1ccc(C2OC(c3ccncc3)=NN2C)cc1F (stereo unspecified) the TGI was > 100 µM. COc1cc2c(cc1OC)C(C(c1ccccc1)c1ccccc1)N(C)CC2 (stereo unspecified) was tested, and the TGI was > 100 µM. With C[N+](C)([O-])CCOc1cc2c(c3ccccc13)-c1ccccc1C2=O the TGI was > 35.3 µM. In the case of CCOC(=O)C1S/C(=N\C(=N)N[N+](=O)[O-])N=C1C (stereo unspecified), the TGI is reported as > 100 µM. With COC(=O)C(Cc1ccc2c(c1)CCC2)Cc1ccc2c(c1)CCC2 the TGI was > 100 µM. In the case of C/C(C[n+]1ccccc1)=N\N=C(N)N, the TGI is reported as > 100 µM. With O=[N+]([O-])C(=C(Nc1cccc2cccnc12)Nc1cccc2cccnc12)C(Cl)=C(Cl)Cl the TGI was > 100 µM. S=C1NC2=C(CSC/C2=C\c2cccc(Br)c2)C(c2cccc(Br)c2)N1 (stereo unspecified) was tested, and the TGI was > 100 µM. In the case of CCCCCCCCCCCCCCCCNc1cccc2ccccc12, the TGI is reported as > 100 µM. With C=C(C(=O)OCC)C(=O)OCC the TGI was > 100 µM. For O=C1OCC/C1=N/O, the TGI was > 100 µM. In the case of CC(O)CNC(=O)C(C)Oc1ccc(OCC2CCCCC2)cc1 (stereo unspecified), the TGI is reported as > 100 µM. CSC1=N/C(=C\c2ccc(C)cc2)C(=O)N1CN1CCCCC1 was tested, and the TGI was > 100 µM. For CC(=NNC(=S)Nc1ccccc1)c1cccc(C(C)=NNC(=S)Nc2ccccc2)n1, the TGI was > 30.1 µM. For Cc1c(/C=N\NC(=S)NCCNC(=S)N/N=C\c2c(C)n(C)n(-c3ccccc3)c2=O)c(=O)n(-c2ccccc2)n1C, the TGI was > 100 µM.
